# Experimental data: patent publication US20170211043A1, “METHOD FOR IN VITRO PRODUCTION OF ADIPOCYTE PROGENITORS AND ADIPOCYTES” (UNIVERSITE PIERRE ET MARIE CURIE (PARIS 6), priority 2014, published 2017)
# Experiments:
# Type in all cases: cell-based, human
# beige adipocytes = assay: MitoTracker staining of adipocytes after 8-Br-cAMP; conditions: after 48 hours, vs basal
# Protocol: (§1) The adipocytes were optionally treated for 6 hours with 10^−5 M isoproterenol (Sigma), then the protein samples were collected. For a longer stimulation, the adipocytes were treated with a non-metabolizable cAMP analogue, 8-Br-cAMP (Sigma), for 48 hours.
# Living cells at D20 of differentiation were incubated with 1 μM MitoTracker® Red CMXRos (Life Technologies®) for 45 minutes in the dark at 37° C., 5% CO2. After rinsing twice with PBS, the cells were fixed with 3% PFA for 15 minutes at room temperature. The preparation was then incubated for 15 minutes with 1 ng/mL BODIPY 493/503 (Molecular Probes®, D-3922) then rinsed 3 times with PBS before being incubated for 5 minutes in DAPI (4′-6-diamidino-2-phenylindole, VWR). After applying the mounting medium (Fluoromount-G™, Southern Biotech), the cells were observed using a confocal microscope (Leica).
# [1] = tested on: PGC1α, PRDM16, PPARα and DIO2; assay: Real-time quantitative PCR of thermogenesis genes after 8-Br-cAMP; conditions: after 48 hours, D20 adipocytes, vs basal
# Protocol: Total RNAs were extracted using the NucleoSpin RNA kit (Macherey Nagel) according to the manufacturer's recommendations. The concentration of total RNAs extracted and their contamination by solvents or salts were evaluated by microspectrophotometry (Nanodrop). Reverse transcription was carried out using the High Capacity cDNA Reverse Transcription Kit (Applied Biosystems). Quantitative PCR was then carried out by adding 2 μL of cDNA diluted 10 times, 10 μL of SYBR Green I PCR mix (Roche Diagnostics, including DNA polymerase, dNTPs, 3 mM MgCl2 and SYBR Green fluorescent probe), 0.2 μM sense primer and 0.2 μM antisense primer (Table 2 below). The reference gene GAPDH was used to normalize the expression of the genes of interest.
# as §1
# [2] = tested on: insulin receptor (IR) and AKT/PKB; assay: Short insulin treatment of adipocytes derived from iPS cells, phospho-specific Western blot; conditions: adipocytes after 20 days of differentiation
# Protocol: The adipocytes were lysed in a suitable volume of lysis buffer (50 mM Tris pH 7.4, 0.27 M sucrose, 1 mM Na-orthovanadate pH 10, 1 mM EDTA, 1 mM EGTA, 10 mM (3-glycerophosphate, 50 mM NaF, 5 mM pyrophosphate, 1% (w/v) Triton X-100, 0.1% (w/v) 2-β-mercaptoethanol, and protease inhibitors). The total lysates were centrifuged (15,000 g, 4° C. for 10 minutes) then stored at −80° C. until use. The protein concentrations were determined using the Bradford method with bovine albumin as the standard. The samples underwent SDS/PAGE migration on polyacrylamide gels and then were transferred onto nitrocellulose membranes (Amersham Biosciences), blocked for 2 hours at room temperature in TBS-T buffer (50 mM Tris-HCl pH 7.6, 150 mM NaCl, 0.1% (v/v) Tween-20) supplemented with 5% (w/v) skimmed milk or BSA, and incubated with the various antibodies specific to the protein of interest (Table 1 above).
# The nitrocellulose membranes were rinsed 3×5 minutes in TBS-T buffer before being incubated with the secondary antibody coupled to peroxidase. The signals were detected using chemiluminescence (Pierce-Perbio Biotechnologies) by exposure on autoradiographic film (Kodak).
Compound,number of mitochondria in the beige adipocytes (beige adipocytes),"expression of genes involved in thermogenesis (PGC1α, PRDM16, PPARα, DIO2) [1]",phosphorylation of the insulin receptor (IR) subunit and its target AKT [2]
Nc1ncnc2c1nc(Br)n2[C@@H]1O[C@@H]2COP(=O)(O)O[C@H]2[C@H]1O [8-Br-cAMP],increase in the number of mitochondria,increase,
insulin,,,strong phosphorylation
